From ChEMBL document CHEMBL1201862, “PubChem BioAssay data set” (2004)
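96-well plates; 48 h exposure; 5 concentrations. Endpoints by linear interpolation between flanking doses. Not reached: highest tested concentration assigned. At the GI50, growth is halved.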 Activity calls are given as the source filed them. Rule as the data show it: active = GI50 up to about 1.1 µM and inactive = higher.

Experiments:
Assay in all cases: NCI-60 cell line screen, 48 h
DU-145 = tested on: DU-145
ACHN = tested on: ACHN
NCI-H226 = tested on: NCI-H226
UACC-62 = tested on: UACC-62
SF-268 = tested on: SF-268
SR = tested on: SR
HL-60 = tested on: HL-60
NCI-H460 = tested on: NCI-H460
CCRF-CEM = tested on: CCRF-CEM
HT-29 = tested on: HT-29
U-251 = tested on: U-251
OVCAR-3 = tested on: OVCAR-3
SK-OV-3 = tested on: SK-OV-3
A549 = tested on: A549
K562 = tested on: K562
BT-549 = tested on: BT-549
COLO 205 = tested on: COLO 205
NCI/ADR-RES = tested on: NCI/ADR-RES
Hs-578T = tested on: Hs-578T
RPMI-8226 = tested on: RPMI-8226
MCF7 = tested on: MCF7
IGROV-1 = tested on: IGROV-1
SW-620 = tested on: SW-620
EKVX = tested on: EKVX
SK-MEL-5 = tested on: SK-MEL-5
HCC 2998 = tested on: HCC 2998
NCI-H23 = tested on: NCI-H23
HCT-15 = tested on: HCT-15
KM12 = tested on: KM12
MOLT-4 = tested on: MOLT-4
TK-10 = tested on: TK-10
A498 = tested on: A498
NCI-H522 = tested on: NCI-H522
MDA-MB-435 = tested on: MDA-MB-435
LOX IMVI = tested on: LOX IMVI
SF-539 = tested on: SF-539
T47D = tested on: T47D
OVCAR-8 = tested on: OVCAR-8
MDA-N = tested on: MDA-N
PC-3 = tested on: PC-3
CAKI-1 = tested on: CAKI-1
SN12C = tested on: SN12C
HCT-116 = tested on: HCT-116
SNB-19 = tested on: SNB-19
Malme-3M = tested on: Malme-3M
SF-295 = tested on: SF-295
SK-MEL-2 = tested on: SK-MEL-2
UACC-257 = tested on: UACC-257
OVCAR-5 = tested on: OVCAR-5
UO-31 = tested on: UO-31
SNB-75 = tested on: SNB-75
SK-MEL-28 = tested on: SK-MEL-28
786-0 = tested on: 786-0
MDA-MB-231 = tested on: MDA-MB-231
M14 = tested on: M14
HOP-62 = tested on: HOP-62
RXF 393 = tested on: RXF 393
OVCAR-4 = tested on: OVCAR-4
HOP-92 = tested on: HOP-92

CN1CC2=C(N=C(S)NC2c2ccc(Cl)cc2)/C(=C/c2ccc(Cl)cc2)C1 (configuration not stated)
GI50 (DU-145): 14.1 µM (inactive) | GI50 (ACHN): 23 µM (inactive) | GI50 (NCI-H226): > 10 µM (inactive) | GI50 (UACC-62): 18.2 µM (inactive) | GI50 (SF-268): 23.9 µM (inactive) | GI50 (SR): 15.6 µM (inactive) | GI50 (HL-60): 14.6 µM (inactive) | GI50 (NCI-H460): 14.8 µM (inactive) | GI50 (CCRF-CEM): 13.5 µM (inactive) | GI50 (HT-29): 16.2 µM (inactive) | GI50 (U-251): 17.2 µM (inactive) | GI50 (OVCAR-3): 15.3 µM (inactive) | GI50 (SK-OV-3): 17.3 µM (inactive) | GI50 (A549): 19 µM (inactive) | GI50 (K562): 12.6 µM (inactive) | GI50 (BT-549): 20.4 µM (inactive) | GI50 (COLO 205): 17.4 µM (inactive) | GI50 (NCI/ADR-RES): 17.2 µM (inactive) | GI50 (Hs-578T): 16.6 µM (inactive) | GI50 (RPMI-8226): 25.8 µM (inactive) | GI50 (MCF7): 22 µM (inactive) | GI50 (IGROV-1): 16.1 µM (inactive) | GI50 (SW-620): 14.6 µM (inactive) | GI50 (EKVX): 19.9 µM (inactive) | GI50 (SK-MEL-5): 13.3 µM (inactive) | GI50 (HCC 2998): 16.6 µM (inactive) | GI50 (NCI-H23): 20 µM (inactive) | GI50 (HCT-15): 13.8 µM | GI50 (KM12): 18.5 µM (inactive) | GI50 (MOLT-4): 5.32 µM (inactive) | GI50 (TK-10): 22.6 µM (inactive) | GI50 (A498): > 10 µM (inactive) | GI50 (NCI-H522): 15.5 µM (inactive) | GI50 (MDA-MB-435): 14.9 µM (inactive) | GI50 (LOX IMVI): 16.1 µM (inactive) | GI50 (SF-539): 25.9 µM (inactive) | GI50 (T47D): 15 µM (inactive) | GI50 (OVCAR-8): 17.5 µM (inactive) | GI50 (MDA-N): 19.7 µM (inactive) | GI50 (PC-3): 9.4 µM (inactive) | GI50 (CAKI-1): 18.3 µM (inactive) | GI50 (SN12C): 17.2 µM (inactive) | GI50 (HCT-116): 15.7 µM (inactive) | GI50 (SNB-19): > 10 µM (inactive) | GI50 (Malme-3M): 14.5 µM (inactive) | GI50 (SF-295): 17.6 µM (inactive) | GI50 (SK-MEL-2): 13.3 µM (inactive) | GI50 (UACC-257): 20 µM (inactive) | GI50 (OVCAR-5): 15.8 µM (inactive) | GI50 (UO-31): 25.8 µM (inactive) | GI50 (SNB-75): 15.1 µM (inactive) | GI50 (SK-MEL-28): 18.5 µM (inactive) | GI50 (786-0): 24.4 µM (inactive) | GI50 (MDA-MB-231): 20.8 µM (inactive) | GI50 (M14): 18.3 µM (inactive) | GI50 (HOP-62): 19.2 µM (inactive)

CN(C)/C=N/c1cc(=O)n(C)c(=O)n1C
GI50 (DU-145): > 100 µM (inactive) | GI50 (ACHN): > 100 µM (inactive) | GI50 (NCI-H226): > 100 µM (inactive) | GI50 (UACC-62): > 100 µM (inactive) | GI50 (SF-268): > 100 µM (inactive) | GI50 (HL-60): > 100 µM (inactive) | GI50 (NCI-H460): > 100 µM (inactive) | GI50 (CCRF-CEM): > 100 µM (inactive) | GI50 (HT-29): > 100 µM (inactive) | GI50 (U-251): > 100 µM (inactive) | GI50 (OVCAR-3): > 100 µM (inactive) | GI50 (SK-OV-3): > 100 µM (inactive) | GI50 (RXF 393): > 100 µM (inactive) | GI50 (A549): > 100 µM (inactive) | GI50 (K562): > 100 µM (inactive) | GI50 (BT-549): > 100 µM (inactive) | GI50 (COLO 205): > 100 µM (inactive) | GI50 (NCI/ADR-RES): > 100 µM (inactive) | GI50 (Hs-578T): > 100 µM (inactive) | GI50 (RPMI-8226): > 100 µM (inactive) | GI50 (MCF7): > 100 µM (inactive) | GI50 (IGROV-1): > 100 µM (inactive) | GI50 (SW-620): > 100 µM (inactive) | GI50 (EKVX): > 100 µM (inactive) | GI50 (SK-MEL-5): > 100 µM (inactive) | GI50 (HCC 2998): > 100 µM (inactive) | GI50 (NCI-H23): > 100 µM (inactive) | GI50 (HCT-15): > 100 µM | GI50 (OVCAR-4): > 100 µM (inactive) | GI50 (KM12): > 100 µM (inactive) | GI50 (MOLT-4): > 100 µM (inactive) | GI50 (TK-10): > 100 µM (inactive) | GI50 (A498): > 100 µM (inactive) | GI50 (NCI-H522): > 100 µM (inactive) | GI50 (MDA-MB-435): > 100 µM (inactive) | GI50 (LOX IMVI): > 100 µM (inactive) | GI50 (SF-539): > 100 µM (inactive) | GI50 (T47D): > 100 µM (inactive) | GI50 (OVCAR-8): > 100 µM (inactive) | GI50 (MDA-N): > 100 µM (inactive) | GI50 (PC-3): > 100 µM (inactive) | GI50 (CAKI-1): > 100 µM (inactive) | GI50 (SN12C): > 100 µM (inactive) | GI50 (HCT-116): > 100 µM (inactive) | GI50 (SNB-19): > 100 µM (inactive) | GI50 (Malme-3M): > 100 µM (inactive) | GI50 (SF-295): > 100 µM (inactive) | GI50 (SK-MEL-2): > 100 µM (inactive) | GI50 (UACC-257): > 100 µM (inactive) | GI50 (OVCAR-5): > 100 µM (inactive) | GI50 (UO-31): > 100 µM (inactive) | GI50 (SNB-75): > 100 µM (inactive) | GI50 (HOP-92): > 100 µM (inactive) | GI50 (SK-MEL-28): > 100 µM (inactive) | GI50 (786-0): > 100 µM (inactive) | GI50 (MDA-MB-231): > 100 µM (inactive) | GI50 (M14): > 100 µM (inactive) | GI50 (HOP-62): > 100 µM (inactive)

CC(=O)OCCC[C@@H]1C(=C(C)C)CCC2[C@@]1(C)CC[C@@]1(C)C[C@](C)(CCC=C(C)C)CC[C@]21C (some centres not stated)
GI50 (DU-145): > 100 µM (inactive) | GI50 (ACHN): > 100 µM (inactive) | GI50 (NCI-H226): > 100 µM (inactive) | GI50 (UACC-62): > 100 µM (inactive) | GI50 (SF-268): > 100 µM (inactive) | GI50 (HL-60): > 100 µM (inactive) | GI50 (NCI-H460): > 100 µM (inactive) | GI50 (CCRF-CEM): > 100 µM (inactive) | GI50 (HT-29): > 100 µM (inactive) | GI50 (U-251): > 100 µM (inactive) | GI50 (OVCAR-3): > 100 µM (inactive) | GI50 (SK-OV-3): > 100 µM (inactive) | GI50 (A549): > 100 µM (inactive) | GI50 (BT-549): > 100 µM (inactive) | GI50 (COLO 205): > 100 µM (inactive) | GI50 (NCI/ADR-RES): > 100 µM (inactive) | GI50 (Hs-578T): > 100 µM (inactive) | GI50 (RPMI-8226): > 100 µM (inactive) | GI50 (MCF7): > 100 µM (inactive) | GI50 (IGROV-1): > 100 µM (inactive) | GI50 (SW-620): > 100 µM (inactive) | GI50 (EKVX): > 100 µM (inactive) | GI50 (SK-MEL-5): > 100 µM (inactive) | GI50 (HCC 2998): > 100 µM (inactive) | GI50 (NCI-H23): > 100 µM (inactive) | GI50 (HCT-15): > 100 µM | GI50 (OVCAR-4): > 100 µM (inactive) | GI50 (KM12): > 100 µM (inactive) | GI50 (MOLT-4): > 100 µM (inactive) | GI50 (TK-10): < 0.01 µM (active) | GI50 (A498): > 100 µM (inactive) | GI50 (NCI-H522): > 100 µM (inactive) | GI50 (MDA-MB-435): > 100 µM (inactive) | GI50 (SF-539): > 100 µM (inactive) | GI50 (T47D): > 100 µM (inactive) | GI50 (OVCAR-8): > 100 µM (inactive) | GI50 (MDA-N): > 100 µM (inactive) | GI50 (PC-3): 18.5 µM (inactive) | GI50 (CAKI-1): > 100 µM (inactive) | GI50 (SN12C): > 100 µM (inactive) | GI50 (HCT-116): > 100 µM (inactive) | GI50 (SNB-19): > 100 µM (inactive) | GI50 (Malme-3M): > 100 µM (inactive) | GI50 (SF-295): > 100 µM (inactive) | GI50 (UACC-257): > 100 µM (inactive) | GI50 (OVCAR-5): > 100 µM (inactive) | GI50 (UO-31): 13.5 µM (inactive) | GI50 (SNB-75): 7.94 µM (inactive) | GI50 (SK-MEL-28): > 100 µM (inactive) | GI50 (786-0): > 100 µM (inactive) | GI50 (MDA-MB-231): > 100 µM (inactive) | GI50 (M14): > 100 µM (inactive) | GI50 (HOP-62): > 100 µM (inactive)
